In ChEMBL document CHEMBL4732177 (J Med Chem, 2021):
pEC50, pKi: −log10 of the molar value. Numbered stars: 1 amine (or outer) side, 2 acyl side, 3 side chain; on linkers, the order of the positions; unused ones are H or OH. Bridge positions count the residues as written; N and C are the ends. Square brackets hold non-standard residues; d marks the D form. Peptide text beside a SMILES is read from it. ξ: configuration not given here. X3 = NCCCC[C@H](N)CN([C@@H](CCCCN)C(=O)[*:2])[*:1]; NMeR = CN[C@@H](CCCNC(=N)N)C(=O)O; Tle = CC(C)(C)[C@H](N)C(=O)O; ξP = O=C(O)C1CCCN1

Legend:
Rattus norvegicus [1] = assay: Antinociceptive activity in Sprague-Dawley rat model administered subcutaneously and measured every 10 mins for 60 mins by radiant heat tail-flick test; type: functional, organism-based; conditions: dose 1-10 mg/kg
Rattus norvegicus [2] = assay: Antinociceptive activity in Sprague-Dawley rat model assessed as maximum possible effect at 10 mg/kg, sc measured every 10 mins for 60 mins by radiant heat tail-flick test relative to control; type: functional; conditions: 1 h
Rattus norvegicus [3] = organism: Rattus norvegicus; assay: animal or person; conditions: Sprague-Dawley, sc, 1 h
Description: Antinociceptive activity in Sprague-Dawley rat model assessed as effective dose administered subcutaneously and measured every 10 mins for 60 mins by radiant heat tail-flick test

[4] = target: Neurotensin receptor type 1 (Homo sapiens, UniProt P30989); assay: Displacement of [3H]-neurotensin from NTS1 in human HT-29 cell membrane incubated for 20 mins by liquid scintillation counter analysis; type: cell membranes
Chain of Neurotensin receptor type 1 (Homo sapiens, UniProt P30989) (P30989 whole entry): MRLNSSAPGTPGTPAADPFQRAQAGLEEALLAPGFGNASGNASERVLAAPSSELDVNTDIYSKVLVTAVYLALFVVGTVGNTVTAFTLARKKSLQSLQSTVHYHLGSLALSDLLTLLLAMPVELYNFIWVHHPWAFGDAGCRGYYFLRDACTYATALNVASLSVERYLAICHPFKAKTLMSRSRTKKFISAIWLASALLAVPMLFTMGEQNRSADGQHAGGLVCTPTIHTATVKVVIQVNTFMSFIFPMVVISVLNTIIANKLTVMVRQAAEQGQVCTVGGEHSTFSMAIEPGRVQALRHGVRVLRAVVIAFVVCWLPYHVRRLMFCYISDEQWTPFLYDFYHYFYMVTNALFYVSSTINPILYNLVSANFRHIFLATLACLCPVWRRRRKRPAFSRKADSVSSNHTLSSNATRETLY

[5] = Induction of hypothermia in Sprague-Dawley rat assessed as drop in body temperature at 30 microg/kg, IT measured every 10 mins upto 60 mins by thermistor probe analysis; conditions: in vivo, icv_or_intrathecal, 0.03 mg/kg, dose 30 µg/kg
[6] = Cardiotoxicity in Sprague-Dawley rat assessed as decrease in mean arterial blood pressure at 0.1 mg/kg, iv measured up to 1000 seconds; type: toxicity, organism-based; conditions: in vivo, time <=1000 sec
[7] = Stability of compound in rat plasma assessed as half life at 1 mM incubated for 1 to 20 mins by UPLC-MS analysis; type: ADME, cell-free; conditions: time 1-20 min
[8] = Stability of compound in rat CSF assessed as half life at 1 mM incubated for 24 hrs by UPLC-MS analysis; type: ADME, tissue-based, Cerebrospinal fluid
Ileum = assay: Myorelaxant activity in Sprague-Dawley rat ileum assessed as reduction in carbachol-induced contractions by force transducer relaxation assay; type: functional, tissue-based
[9] = target: Neurotensin receptor type 2 (Homo sapiens, UniProt O95665); assay: Binding affinity to NTS2 (unknown origin)
Chain of Neurotensin receptor type 2 (O95665 whole entry): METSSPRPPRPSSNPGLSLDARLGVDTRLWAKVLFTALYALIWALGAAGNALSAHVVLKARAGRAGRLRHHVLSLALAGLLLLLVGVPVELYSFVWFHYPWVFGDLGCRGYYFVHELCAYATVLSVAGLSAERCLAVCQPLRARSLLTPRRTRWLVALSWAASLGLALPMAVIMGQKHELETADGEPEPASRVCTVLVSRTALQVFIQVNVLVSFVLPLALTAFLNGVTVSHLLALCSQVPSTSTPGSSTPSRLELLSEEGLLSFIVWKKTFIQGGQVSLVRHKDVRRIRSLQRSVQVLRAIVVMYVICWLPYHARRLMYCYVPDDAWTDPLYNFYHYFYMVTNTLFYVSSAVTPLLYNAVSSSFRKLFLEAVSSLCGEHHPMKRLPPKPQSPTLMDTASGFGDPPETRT

[10] = target: Neurotensin receptor type 1 (Mus musculus, UniProt O88319); assay: Displacement of [3H]-neurotensin from NTS1 in mouse brain membrane incubated for 30 mins by liquid scintillation counter analysis; type: cell membranes
Chain of Neurotensin receptor type 1 (Mus musculus, UniProt O88319) (O88319 whole entry): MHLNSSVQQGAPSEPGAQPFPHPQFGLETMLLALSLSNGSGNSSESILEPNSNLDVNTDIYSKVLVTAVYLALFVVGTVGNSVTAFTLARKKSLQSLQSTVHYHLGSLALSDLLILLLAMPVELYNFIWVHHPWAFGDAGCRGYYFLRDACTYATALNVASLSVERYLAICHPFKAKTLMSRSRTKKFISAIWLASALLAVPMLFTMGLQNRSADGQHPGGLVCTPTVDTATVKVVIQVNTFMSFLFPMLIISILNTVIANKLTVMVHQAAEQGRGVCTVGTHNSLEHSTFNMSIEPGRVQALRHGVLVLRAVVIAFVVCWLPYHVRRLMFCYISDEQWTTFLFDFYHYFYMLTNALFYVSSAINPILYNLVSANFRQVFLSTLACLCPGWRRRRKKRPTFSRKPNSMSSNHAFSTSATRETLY

Q: Which results are given for `CN1CC[C@]23c4c5ccc(O)c4O[C@H]2[C@@H](O)C=C[C@H]3[C@H]1C5` [MORPHINE]?
A: Activity (Rattus norvegicus [1]): Dose-dependent effect; MPE (Rattus norvegicus [2]): 83.3%; ED50 (Rattus norvegicus [3]): 3.6 mg/kg

Q: With `CC(C)C[C@H](NC(=O)[C@@H]1CCC(=O)NCC(=O)N(C)[C@@H](CCCNC(=N)N)C(=O)N[C@@H](CCCCN)C(=O)N2CCCC2C(=O)N[C@@H](Cc2c[nH]c3ccccc23)C(=O)N1)C(=O)O` (stereo partly drawn) (G[NMeR]K[ξP]WEL-OH; lactam N-6) as the molecule, how does the pKi [4] read?
A: Its pKi is 5.46.

Q: For `CCOC(=O)[C@H](CC(C)C)NC(=O)[C@@H](NC(=O)[C@H](Cc1c[nH]c2ccccc12)NC(=O)[C@@H]1CCCN1C(=O)[C@H](CCCCN)NC[C@@H](N)CCCCN)C(C)(C)C` (H-[X3]PW[Tle]L-OEt), which deltaT [5] is on record?
A: Its deltaT is 3 °C.

Q: With `CC[C@H](C)[C@H](NC(=O)[C@H](Cc1ccc(O)cc1)NC(=O)[C@@H]1CCCN1C(=O)[C@H](CCCNC(=N)N)NC(=O)[C@@H](N)CCCNC(=N)N)C(=O)N[C@@H](CC(C)C)C(=O)O` as the molecule, how does the Activity [6] read?
A: The Activity was “<= 50 mmHg”.

Q: What about the half-life at 1000 µM [7] of the same molecule?
A: The half-life at 1000 µM was 1.6 min.

Q: And the half-life at 1000 µM [8]?
A: The half-life at 1000 µM was 14.9 h.

Q: And the Activity (Ileum)?
A: The Activity was “Dose-dependent effect”.

Q: What about the pEC50 (Ileum) of the same molecule?
A: The pEC50 was 8.41.

Q: With `CC[C@H](C)[C@H](NC(=O)[C@@H]1Cc2ccc(O)c(c2)C/C=C/CCCCCC[C@H](N)C(=O)N[C@@H](CCCCN)C(=O)N2CCC[C@H]2C(=O)N1)C(=O)N[C@@H](CC(C)C)C(=O)O` as the molecule, how does the pKi [9] read?
A: The pKi was 7.62.

Q: With `CN[C@@H](CCCNC(=N)N)C(=O)N[C@H]1CCCCNC(=O)CC[C@@H](C(=O)N[C@@H](CC(C)C)C(=O)O)NC(=O)[C@H](Cc2c[nH]c3ccccc23)NC(=O)[C@@H]2CCCN2C1=O` (H-[NMeR]KPWEL-OH; lactam 2-5) as the molecule, how does the pKi [10] read?
A: The pKi was 6.11.

Q: With `CC[C@H](C)[C@H](NC(=O)[C@@H]1Cc2ccc(O)c(c2)C/C=C/CCCCCCC(=O)N[C@@H](CCCCN)C(=O)N2CCC[C@H]2C(=O)N1)C(=O)N[C@@H](CC(C)C)C(=O)O` as the molecule, how does the pKi [9] read?
A: Its pKi is less than 9.00.
